Results as given in patent publication US20220220128A1, “HETEROCYCLIC COMPOUNDS AS KINASE INHIBITORS, COMPOSITIONS COMPRISING THE HETEROCYCLIC COMPOUND, AND METHODS OF USE THEREOF” (JS Innopharm (Shanghai) Ltd, priority 2019, published 2022).
Read-outs that look alike come from different tables or passages of the source.

Tests used:
human RET kinase = target: T1, human RET kinase (Homo sapiens, UniProt P07949); assay: RET Kinase Assay (LanthaScreen TR-FRET enzymatic assay); assay type: biochemical; settings: 7 nM RET, 23 μM ATP
T1 construct: purchased Carna 08-159
T1 sequence (P07949 29-1114): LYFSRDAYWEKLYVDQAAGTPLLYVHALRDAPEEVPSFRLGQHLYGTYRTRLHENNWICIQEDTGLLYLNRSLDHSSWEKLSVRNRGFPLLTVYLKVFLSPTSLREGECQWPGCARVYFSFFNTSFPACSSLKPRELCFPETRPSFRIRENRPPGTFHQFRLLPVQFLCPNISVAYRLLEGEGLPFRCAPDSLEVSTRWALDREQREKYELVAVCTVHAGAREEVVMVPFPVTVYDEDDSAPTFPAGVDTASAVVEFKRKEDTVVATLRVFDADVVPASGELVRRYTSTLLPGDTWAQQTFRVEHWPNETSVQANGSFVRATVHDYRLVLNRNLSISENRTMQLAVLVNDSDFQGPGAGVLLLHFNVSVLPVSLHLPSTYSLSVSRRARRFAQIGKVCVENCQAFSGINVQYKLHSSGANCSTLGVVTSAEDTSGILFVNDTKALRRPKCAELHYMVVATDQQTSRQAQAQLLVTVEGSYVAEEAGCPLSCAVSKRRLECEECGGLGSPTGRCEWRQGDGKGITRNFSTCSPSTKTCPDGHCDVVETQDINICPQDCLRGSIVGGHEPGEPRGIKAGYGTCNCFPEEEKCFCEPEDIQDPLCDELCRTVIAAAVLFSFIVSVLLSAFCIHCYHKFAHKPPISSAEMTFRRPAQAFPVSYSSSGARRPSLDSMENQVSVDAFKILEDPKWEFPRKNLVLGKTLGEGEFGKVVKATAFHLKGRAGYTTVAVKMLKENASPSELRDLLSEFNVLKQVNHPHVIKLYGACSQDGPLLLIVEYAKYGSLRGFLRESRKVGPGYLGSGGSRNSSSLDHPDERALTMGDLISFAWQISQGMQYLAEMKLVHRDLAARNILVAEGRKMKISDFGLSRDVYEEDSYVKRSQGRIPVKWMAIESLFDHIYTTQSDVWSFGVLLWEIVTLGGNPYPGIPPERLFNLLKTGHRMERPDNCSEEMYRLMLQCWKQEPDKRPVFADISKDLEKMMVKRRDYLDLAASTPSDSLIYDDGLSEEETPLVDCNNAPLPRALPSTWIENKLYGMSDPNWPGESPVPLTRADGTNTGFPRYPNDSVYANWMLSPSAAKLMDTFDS
Experimental: Compounds were tested in a LanthaScreen™ time-resolved fluorescence energy transfer (TR-FRET) enzymatic assay from Invitrogen. The assay used human RET kinase (Carna 08-159). Test compounds were prepared and diluted in DMSO in 3-fold serial dilutions to 50× of the final testing concentrations. The compounds were then further diluted to 5× by the kinase reaction buffer (50 mM HEPES pH 7.5, 0.0015% Brij-35). The enzymatic reaction for compound testing was performed in a white 384-well polypropylene plate (Corning 3573) with a total reaction volume of 25 μl containing 7 nM RET, 3 μM peptide substrate FAM-P2 (GL Biochem 112394), and 23 μM ATP (Sigma A7699-1G). The assay started with loading RET diluted in kinase reaction buffer to wells, followed by addition of equal volume of 5× compounds for 15-min incubation at the room temperature for pre-treatment. The enzymatic reaction was initiated by addition of mixture of the substrate and ATP prepared in kinase reaction buffer. After incubation at 28° C. for one hour, 25 μl of stopper buffer (a mixture of 100 mM HEPES pH 7.5 buffer, 0.015% Brij-35, 50 mM EDTA and 0.2% of coating reagent 3 (Cliper Lifesciences)) and produce TR-FRET signals. After 30 minutes of incubation at room temperature, the plate was read in a Caliper with the following settings: Excitation 340 nm (30)/Emission1 495 nm (10)/Emission2 520 nm (25). The TR-FRET values were dimensionless numbers that were calculated as the ratio of the acceptor ([…]) signal to the donor (Terbium) signal. Percent of control was calculated as the percentage of compound-treated vs 1% DMSO vehicle-treated. The dose-response curves were generated and the IC50s were calculated by nonlinear sigmoid curve fitting using XLFit.

human KDR kinase = target: T2, human KDR kinase (Homo sapiens, UniProt P35968); assay: KDR Kinase Assay (LanthaScreen TR-FRET enzymatic assay); assay type: biochemical; settings: 1.2 nM KDR, 92 μM ATP
T2 construct: purchased Carna 08-191
T2 sequence (P35968 20-1356): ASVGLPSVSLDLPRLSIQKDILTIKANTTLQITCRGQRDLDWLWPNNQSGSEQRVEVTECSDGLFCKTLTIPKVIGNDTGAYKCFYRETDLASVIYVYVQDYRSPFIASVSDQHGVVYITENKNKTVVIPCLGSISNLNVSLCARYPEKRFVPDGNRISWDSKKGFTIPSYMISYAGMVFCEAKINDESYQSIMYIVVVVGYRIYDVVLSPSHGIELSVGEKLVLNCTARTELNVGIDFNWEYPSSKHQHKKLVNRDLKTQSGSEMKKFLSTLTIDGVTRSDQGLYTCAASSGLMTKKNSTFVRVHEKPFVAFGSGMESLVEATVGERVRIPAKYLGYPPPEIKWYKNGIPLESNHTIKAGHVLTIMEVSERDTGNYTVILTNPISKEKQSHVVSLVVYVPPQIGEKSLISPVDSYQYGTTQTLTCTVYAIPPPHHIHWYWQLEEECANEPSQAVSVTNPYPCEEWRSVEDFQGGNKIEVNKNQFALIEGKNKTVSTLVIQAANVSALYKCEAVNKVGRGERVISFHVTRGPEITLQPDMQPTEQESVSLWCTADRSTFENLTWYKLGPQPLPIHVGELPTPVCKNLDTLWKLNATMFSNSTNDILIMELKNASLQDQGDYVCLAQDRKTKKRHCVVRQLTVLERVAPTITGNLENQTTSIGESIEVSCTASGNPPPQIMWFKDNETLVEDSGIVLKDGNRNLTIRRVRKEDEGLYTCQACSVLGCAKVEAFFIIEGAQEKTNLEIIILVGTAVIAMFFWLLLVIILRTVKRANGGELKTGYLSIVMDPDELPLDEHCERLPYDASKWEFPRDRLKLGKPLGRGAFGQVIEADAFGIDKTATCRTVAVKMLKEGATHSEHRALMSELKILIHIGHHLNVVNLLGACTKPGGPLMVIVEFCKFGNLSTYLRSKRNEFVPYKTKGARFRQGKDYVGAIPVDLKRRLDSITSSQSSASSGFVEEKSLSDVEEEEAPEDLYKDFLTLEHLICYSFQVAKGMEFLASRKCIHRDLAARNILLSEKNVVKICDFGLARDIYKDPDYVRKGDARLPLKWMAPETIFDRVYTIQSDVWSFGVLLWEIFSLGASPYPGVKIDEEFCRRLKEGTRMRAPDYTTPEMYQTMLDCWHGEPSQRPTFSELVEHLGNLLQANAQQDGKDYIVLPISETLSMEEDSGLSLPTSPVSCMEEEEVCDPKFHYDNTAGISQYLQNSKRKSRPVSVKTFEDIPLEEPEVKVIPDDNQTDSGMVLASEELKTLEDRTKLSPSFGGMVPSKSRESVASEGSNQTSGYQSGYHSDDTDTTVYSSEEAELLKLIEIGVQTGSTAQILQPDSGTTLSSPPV
Experimental: Compounds were tested in a LanthaScreen™ time-resolved fluorescence energy transfer (TR-FRET) enzymatic assay from Invitrogen. The assay used human KDR kinase (Carna 08-191). Test compounds were prepared and diluted in DMSO in 3-fold serial dilutions to 50× of the final testing concentrations. The compounds were then further diluted to 5× by the kinase reaction buffer (50 mM HEPES pH 7.5, 0.0015% Brij-35). The enzymatic reaction for compound testing was performed in a white 384-well polypropylene plate (Corning 3573) with a total reaction volume of 25 μl containing 1.2 nM KDR, 3 μM peptide substrate FAM-P22 (GL Biochem 112393), and 92 μM ATP (Sigma A7699-1G). The assay started with loading RET diluted in kinase reaction buffer to wells, followed by addition of equal volume of 5× compounds for 15-min incubation at the room temperature for pre-treatment. The enzymatic reaction was initiated by addition of mixture of the substrate and ATP prepared in kinase reaction buffer. After incubation at 28° C. for one hour, 25 μl of stopper buffer (a mixture of 100 mM HEPES pH 7.5 buffer, 0.015% Brij-35, 50 mM EDTA and 0.2% of coating reagent 3 (Cliper Lifesciences)) and produce TR-FRET signals. After 30 minutes of incubation at room temperature, the plate was read in a Caliper with the following settings: Excitation 340 nm (30)/Emission1 495 nm (10)/Emission2 520 nm (25). The TR-FRET values were dimensionless numbers that were calculated as the ratio of the acceptor ([…]) signal to the donor (Terbium) signal. Percent of control was calculated as the percentage of compound-treated vs 1% DMSO vehicle-treated. The dose-response curves were generated and the IC50s were calculated by nonlinear sigmoid curve fitting using XLFit.

TT cells = assay: TT Cell Proliferation Assay (WST-8, 8 days); assay type: cell-based; settings: growth inhibition in TT cells, read-out: TT Cellular Activity
Experimental: Compounds disclosed herein were tested for the inhibition of RET by a cancer cell proliferation assay commonly known as MTT assay. In this assay, a complete media was prepared by adding 10% fetal bovine serum to RPMI-1640 medium (Life technology). TT cells were added to each of 88 wells of a 96 well plate at a seeding density of 6,000 cells/well/90 μL. The cells were allowed to attach to the plate by incubating at 37° C. for 24 hours. The compound was dissolved in DMSO (SIGMA). A solution of test compound was prepared in complete media by serial dilution to obtain the following concentrations: 50 μM, 15 μM, 5 μM, 1.5 μM, 0.5 μM, 0.15 μM, 0.05 μM, 0.015 μM and 0.005 μM. The test compound solution (10 μL) was added to each of 80 cell-containing wells. The final concentrations of the compound were following: 5 μM, 1.5 μM, 0.5 μM, 0.15 μM, 0.05 μM, 0.015 μM, 0.005 μM, 0.0015 μM and 0.0005 μM. The final concentration of DMSO is 0.5%. To the 8 remaining cell-containing wells, only complete media (containing 0.5% DMSO) was added to form a control group in order to measure maximal proliferation. To the remaining 8 empty wells, complete media was added to for a vehicle control group in order to measure background. The plates were incubated at 37° C. for 8 days. 10 μL WST-8 solution (DOJINDO, Cell Counting KIT-8) was added to each well. The plates were further incubated at 37° C. for 5 hours, and then read for the absorbance using a microplate reader at 450 nm. The IC50 was calculated using GraphPad Prism.

| Compound | IC50 (human RET kinase) | IC50 (human KDR kinase) | IC50 (TT cells; Homo sapiens, TT, 192 h) | IC50 (TT cells) |
| --- | --- | --- | --- | --- |
| CCOc1cc(-c2ccc(N3C[C@@H]4C[C@@](C)(NC(=O)c5c(C)cccc5Cl)C[C@@H]4C3)nc2)c2c(C#N)cnn2c1 [Example 63, 2-chloro-N-((3aR,5s,6aS)-2-(5-(3-cyano-6-ethoxypyrazolo[1,5-a]pyridin-4-yl)pyridin-2-yl)-5-methyloctahydrocyclopenta[c]pyrrol-5-yl)-6-methylbenzainide] | ≤ 10 nM | 50 to 100 nM | 10 to 50 nM |  |
| COc1ccc(C(=O)N[C@]2(C)C[C@H]3CN(c4ccc(-c5cc(-c6cnn(C)c6)cn6ncc(C#N)c56)cn4)C[C@H]3C2)cn1 [Example 58, N-((3aR,5s,6aS)-2-(5-(3-cyano-6-(1-methyl-1H-pyrazol-4-yl)pyrazolo[1,5-a]pyridin-4-yl)pyridin-2-yl)-5-methyloctahydro-cyclopenta[c]pyrrol-5-yl)-6-methoxy-nicotinamide] | ≤ 10 nM | ≤ 10 nM | 10 to 50 nM |  |
| CC(C)C(O)C(=O)N[C@@H]1[C@@H]2CN(c3ccc(-c4cc(-c5cnn(C)c5)cn5ncc(C#N)c45)cc3)C[C@@H]21 (stereo partly drawn) [Example 17, N-((1R,5S,6r)-3-(4-(3-cyano-6-(1-methyl-1H-pyrazol-4-yl)pyrazolo[1,5-a]pyridin-4-yl)phenyl)-3-azabicyclo[3.1.0]hexan-6-yl)-2-hydroxy-3-methylbutanamide] | ≤ 10 nM | 10 to 50 nM | 10 to 50 nM |  |
| Cn1cc(-c2cc(-c3ccc(N4C[C@@H]5[C@@H](CNC(=O)c6c(F)cccc6Cl)[C@@H]5C4)nc3)c3c(C#N)cnn3c2)cn1 [Example 83, 2-chloro-N-(((1R,5S,6s)-3-(5-(3-cyano-6-(1-methyl-1H-pyrazol-4-yl)pyrazolo[1,5-a]pyridin-4-yl)pyridin-2-yl)-3-azabicyclo[3.1.0]hexan-6-yl)methyl)-6-fluorobenzamide] | ≤ 10 nM | 10 to 50 nM | ≤ 10 nM |  |
| CCOc1cc(-c2ccc(N3C[C@@H]4C[C@@](C)(NC(=O)c5cc(F)ccc5C)C[C@@H]4C3)nc2)c2c(C#N)cnn2c1 [Example 69, N-((3aR,5s,6aS)-2-(5-(3-cyano-6-ethoxypyrazolo[1,5-a]pyridin-4-yl)pyridin-2-yl)-5-methyloctahydrocyclopenta[c]pyrrol-5-yl)-5-fluoro-2-methylbenzamide] | ≤ 10 nM | > 100 nM | ≤ 10 nM |  |
| CCOc1cc(-c2ccc(N3C[C@@H]4C[C@@](C)(NC(=O)c5ncccc5C(F)(F)F)C[C@@H]4C3)nc2)c2c(C#N)cnn2c1 [Example 65, N-((3aR,5s,6aS)-2-(5-(3-cyano-6-ethoxypyrazolo[1,5-a]pyridin-4-yl)pyridin-2-yl)-5-methyloctahydrocyclopenta[c]pyrrol-5-yl)-3-(trifluoromethyl)picolinamide] | ≤ 10 nM | 50 to 100 nM | 10 to 50 nM |  |
| COc1ccc(C(=O)N2C[C@@H]3CN(c4ccc(-c5cc(-c6cnn(C)c6)cn6ncc(C#N)c56)cn4)C[C@@H]3C2)cn1 [Example 1, 4-(6-((3aR,6aS)-5-(6-methoxynicotinoyl)hexahydropyrrolo[3,4-c]pyrrol-2(1H)-yl)pyridin-3-yl)-6-(1-methyl-1H-pyrazol-4-yl)pyrazolo[1,5-a]pyridine-3-carbonitrile] | ≤ 10 nM | 10 to 50 nM | 10 to 50 nM |  |
| Cn1cc(-c2cc(-c3ccc(N4C[C@@H]5[C@@H](CNC(=O)c6ncccc6C(F)(F)F)[C@@H]5C4)nc3)c3c(C#N)cnn3c2)cn1 [Example 86, N-(((1R,5S,6s)-3-(5-(3-cyano-6-(1-methyl-1H-pyrazol-4-yl)pyrazolo[1,5-a]pyridin-4-yl)pyridin-2-yl)-3-azabicyclo[3.1.0]hexan-6-yl)methyl)-3-(trifluoromethyl)picolinamide] | ≤ 10 nM | 10 to 50 nM |  | ≤ 10 nM |
| Cn1cc(-c2cc(-c3ccc(N4C[C@@H]5[C@H](C4)[C@@H]5NS(=O)(=O)c4c(F)cccc4Cl)nc3)c3c(C#N)cnn3c2)cn1 [Example 35, 2-chloro-N-((1R,5S,6r)-3-(5-(3-cyano-6-(1-methyl-1H-pyrazol-4-yl)pyrazolo[1,5-a]pyridin-4-yl)pyridin-2-yl)-3-azabicyclo[3.1.0]hexan-6-yl)-6-fluorobenzenesulfonamide] | ≤ 10 nM | 10 to 50 nM | 10 to 50 nM |  |
| CC(C)(O)COc1cc(-c2ccc(N3C[C@@H]4CN(S(=O)(=O)c5c(F)cccc5Cl)C[C@@H]4C3)nc2)c2c(C#N)cnn2c1 [Example 92, 4-(6-((3aR,6aS)-5-((2-chloro-6-fluorophenyl)sulfonyl)hexahydropyrrolo[3,4-c]pyrrol-2(1H)-yl)pyridin-3-yl)-6-(2-hydroxy-2-methylpropoxy)pyrazolo[1,5-a]pyridine-3-carbonitrile] | ≤ 10 nM | 10 to 50 nM | 10 to 50 nM |  |
| CCOc1cc(-c2cnc(N3C[C@@H]4C[C@@](C)(NC(=O)c5ncccc5Cl)C[C@@H]4C3)cn2)c2c(C#N)cnn2c1 [Example 60, 3-chloro-N-((3aR,5s,6aS)-2-(5-(3-cyano-6-ethoxypyrazolo[1,5-a]pyridin-4-yl)pyrazin-2-yl)-5-methyloctahydrocyclopenta[c]pyrrol-5-yl)picolinamide] | ≤ 10 nM | > 100 nM | 10 to 50 nM |  |
| Cn1cc(-c2cc(-c3ccc(N4C[C@@H]5[C@H](C4)[C@H]5NC(=O)C(N)c4ccccc4)nc3)c3c(C#N)cnn3c2)cn1 (stereo partly drawn) [Example 32, 2-amino-N-((1R,5S,6s)-3-(5-(3-cyano-6-(1-methyl-1H-pyrazol-4-yl)pyrazolo[1,5-a]pyridin-4-yl)pyridin-2-yl)-3-azabicyclo[3.1.0]hexan-6-yl)-2-phenylacetamide] | ≤ 10 nM | > 100 nM | ≤ 10 nM |  |
| CC(C)(O)COc1cc(-c2ccc(N3C4CC5CC3CC(NS(C)(=O)=O)(C5)C4)nc2)c2c(C#N)cnn2c1 [Example 131, N-((1R,3S,5s,7s)-2-(5-(3-cyano-6-(2-hydroxy-2-methylpropoxy)pyrazolo[1,5-a]pyidin-4-yl)pyridin-2-yl)-2-azaadamantan-5-yl)methanesulfonamide] | ≤ 10 nM | 50 to 100 nM | 10 to 50 nM |  |
